{"source": "patent US10077236B2", "about": "“Azacyclic constrained analogs of FTY720” (The Regents of the University of California, priority 2013, dated 2018)", "key": {"[1]": {"tested_on": "BMp190 cells (murine bone marrow transduced with BCR-Abl p190)", "experiment": "Cell viability assay, BCR-Abl p190-expressing murine bone marrow (BM-p190)", "type": "cell-based", "excerpt": "(§1) Leukemia cell assays: Effects of chemical changes on ability to kill cells as observed in cell viability assays using the BCR-ABL positive human acute lymphoblastic leukemia (ALL) cell line, Sup-B15 are described. Assays using the Sup-B15 cell line were designed to determine efficacy of azacyclic constrained small molecule analogs of FTY720 in killing leukemia cells. Analogs were generated using the synthesis methods mentioned above. Sup-B15 cells were maintained at 2-3 million/mL in RPMI 1640 (by Mediatech™) supplemented with 10% fetal calf serum (by Sigma-Aldrich™), 10 mM Hepes (by Mediatech™), 55 μM β-mercaptoethanol (by Sigma-Aldrich™), 2 mM L-glutamine (by Mediatech™), and antibiotics. BV173, Nalm-6, and Blin-1 were maintained at 1-2 million/mL and CCRF-CEM at less than 500,000/mL in the same medium. BMp190 cells were created by transducing murine bone marrow cells with pMIC-p190 which expresses the p190 isoform of BCR-Abl and human CD4 from an IRES; these cells were kept at 1-2 million/mL in RPMI supplemented as above.\n(§2) Flow cytometry: Much of the biological activity presented is shown through flow cytometry data. […] Here, IC50 flow cytometry assays were used. In them, viability was determined at 72 hours by vital dye exclusion [propium iodide or DAPI (4′,6-diamindino-2-phenylindole)]. To measure nutrient receptor expression following exposure to FTY720 and azacyclic constrained analogs of FTY720, surface 4F2hc expression was measured after 3 hours of drug treatment by staining 150,000 cells with phycoerythrin-conjugated mouse anti-human CD98 (by BD Biosciences™). Analysis was restricted to viable cells.\n(§3) All samples for the disclosed sets of data were analyzed on a BD LSR II flow cytometer and data analyzed with FlowJo™ software (by Treestar™). IC50's were calculated and statistical tests were performed using GraphPad Prism™."}, "BV173 Ph+ ALL cell line": {"tested_on": "BV173 Ph+ ALL cell line", "experiment": "Cell viability assay, BV173", "type": "cell-based, human", "settings": "72 h, vital dye exclusion and flow cytometry; read-out: Mean IC50 (+/- SEM) in cell viability assay, BV173 Ph+ ALL", "excerpt": "as §1, §2, §3"}, "[2]": {"tested_on": "CCRF-CEM Ph- ALL cell line", "experiment": "Cell viability assay, CCRF-CEM", "type": "cell-based, human", "settings": "72 h, vital dye exclusion and flow cytometry; read-out: Mean IC50 (+/- SEM) in cell viability assay, CCRF-CEM Ph- ALL", "excerpt": "as §1, §2, §3"}, "Nalm-6 Ph- ALL cell line": {"tested_on": "Nalm-6 Ph- ALL cell line", "experiment": "Cell viability assay, Nalm-6", "type": "cell-based, human", "settings": "72 h, vital dye exclusion and flow cytometry; read-out: Mean IC50 (+/- SEM) in cell viability assay, Nalm-6 Ph- ALL", "excerpt": "as §1, §2, §3"}, "[3]": {"tested_on": "SupB15 model, leukemic burden in the bone marrow", "experiment": "In vivo SupB15 leukemia model", "settings": "21 days of treatment, 10 mg/kg i.p.", "excerpt": "Since compound 6 worked so well in the leukemia cell line, an examination of its effectiveness in vivo in a SupB15 model was undertaken."}, "[4]": {"tested_on": "sphingosine-1-phosphate receptors", "experiment": "S1P receptor activation in CHO cells expressing the receptors", "type": "cell-based", "settings": "added to CHO cells expressing the receptors", "description": "When the pure phosphates are added to these CHO cells, multiple S1P receptors are activated when the phosphates are present at 1-10 uM. There is no enantiomer-selectivity in the activation of S1P receptors."}, "[5]": {"tested_on": "patient-derived BCR-Abl+ acute lymphoblastic leukemia cells", "experiment": "Viability of patient-derived BCR-Abl+ acute lymphoblastic leukemia cells", "type": "cell-based, human", "settings": "96 h, flow cytometry (vital dye exclusion)", "description": "Finally, in FIG. 10g dose response curves are provided for studies conducted with patient-derived BCR-Abl+ acute lymphoblastic leukemia cells. Viability was measured at 96 h by flow cytometry (vital dye exclusion)."}, "SphK1 null MEFs": {"tested_on": "SphK1 null MEFs", "experiment": "Sensitivity of SphK1 null MEFs", "type": "cell-based", "description": "(§4) The importance of phosphorylation in the activity of compound 6 was then examined. In this study MEF knockout lines that show the same differential sensitivity to compound 6 relative to its enantiomers as leukemia cells were used (FIG. 10h). […] A phosphate and a non-phosphorylatable analog of compound 6 were then tested."}, "SphK2 null MEFs": {"tested_on": "SphK2 null MEFs", "experiment": "Sensitivity of SphK2 null MEFs", "type": "cell-based", "description": "as §4"}, "sphingosine kinase 2": {"biological_target": "T1, sphingosine kinase 2 (Mus musculus, UniProt Q9JIA7)", "T1 construct": "endogenous in cells", "T1 sequence (Q9JIA7 1-617)": "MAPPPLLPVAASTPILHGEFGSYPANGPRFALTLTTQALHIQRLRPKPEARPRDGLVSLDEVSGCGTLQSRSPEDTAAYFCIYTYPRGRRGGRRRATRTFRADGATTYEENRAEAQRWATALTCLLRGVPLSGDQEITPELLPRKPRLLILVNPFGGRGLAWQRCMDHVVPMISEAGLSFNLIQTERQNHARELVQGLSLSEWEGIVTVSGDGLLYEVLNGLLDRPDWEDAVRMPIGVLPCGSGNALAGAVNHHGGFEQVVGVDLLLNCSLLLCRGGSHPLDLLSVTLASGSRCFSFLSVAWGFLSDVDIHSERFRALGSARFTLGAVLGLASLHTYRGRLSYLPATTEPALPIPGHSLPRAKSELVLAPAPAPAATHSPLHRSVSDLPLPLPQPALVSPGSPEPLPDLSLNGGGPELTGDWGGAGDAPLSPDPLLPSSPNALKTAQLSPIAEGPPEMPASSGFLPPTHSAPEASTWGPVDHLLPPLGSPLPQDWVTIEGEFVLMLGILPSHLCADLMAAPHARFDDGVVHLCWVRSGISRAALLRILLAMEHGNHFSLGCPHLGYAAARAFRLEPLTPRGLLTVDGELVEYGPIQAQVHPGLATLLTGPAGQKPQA", "experiment": "Phosphorylation by sphingosine kinase 2 in cells", "type": "cell-based", "description": "as §4"}, "[6]": {"experiment": "Distribution of compound 6 and its phosphorylated form in plasma, bone marrow and spleen of mice", "type": "in vivo", "settings": "normalization to total protein; tissues versus blood", "description": "A study was then conducted to examine what happens to compound 6 when administered to animals. Mice were treated with 10 mg/kg doses of compound 6 (i.p.) and then the mice were sacrificed at various time points, then plasma, bone marrow, and spleen tissue were extracted to build curves. […] Indeed, the ratio of phosphorylated to unphosphorylated compound 6 in the spleen and bone marrow is close to 1:1 after i.p. administration."}, "BCR-Abl- LAX7R cells": {"tested_on": "BCR-Abl- LAX7R cells", "experiment": "Combination with trametinib in BCR-Abl- LAX7R patient leukemia cells", "type": "cell-based, human", "settings": "some BCR-Abl negative patient leukemia samples", "excerpt": "FIGS. 10n and 10o provide data results from a study of the effectiveness of treating BCR-Abl+ SFO2 cells (10n), and also in BCR-Abl− LAX7R cells (10o), which is a late-stage leukemia resistant to chemotherapy."}}}
{"smiles": "CCCCCCCCc1ccc(CO[C@@H]2CN[C@@H](CO)C2)cc1.Cl", "note": "[Compound 6]", "values": [{"measurement": "IC50", "setting": "[1]; 72 h, vital dye exclusion and flow cytometry, read-out: Mean IC50 (+/- SEM) in cell viability assay, BM-p190", "result": "0.5 ± 0.1", "unit": "µM"}, {"measurement": "more active than compound 5", "setting": "[1]; murine bone marrow transformed by BCR-ABL p190", "result": 10, "unit": "fold"}, {"measurement": "IC50", "setting": "BV173 Ph+ ALL cell line", "result": "3.8 ± 0.4", "unit": "µM"}, {"measurement": "IC50", "setting": "[2]", "result": "8.2 ± 0.7", "unit": "µM"}, {"measurement": "IC50", "setting": "Nalm-6 Ph- ALL cell line", "result": "13.5 ± 2.4", "unit": "µM"}, {"measurement": "leukemic burden in the bone marrow", "setting": "[3]", "result": "dramatic reduction in the leukemic burden in the bone marrow"}, {"measurement": "activation of sphingosine-1-phosphate receptors", "setting": "[4]", "result": "do not activate sphingosine-1-phosphate receptors"}, {"measurement": "potency in dose response, viability", "setting": "[5]", "result": "more potent than FTY720 and its enantiomer, compound 39"}, {"measurement": "differential sensitivity to compound 6 relative to its enantiomers", "setting": "SphK1 null MEFs", "result": "this difference is maintained"}, {"measurement": "gain of functional activity", "setting": "SphK2 null MEFs", "result": "no longer shows gain of functional activity"}, {"measurement": "phosphorylation by sphingosine kinase 2 in cells", "setting": "sphingosine kinase 2", "result": "more efficient"}, {"measurement": "tissue accumulation", "setting": "[6]", "result": "accumulates in tissues to higher levels than are present in blood"}, {"measurement": "sensitivity, combination with trametinib", "setting": "BCR-Abl- LAX7R cells", "result": "sensitive to this drug combination"}, {"measurement": "sensitivity, single agent", "setting": "BCR-Abl- LAX7R cells", "result": "not sensitive to compound 6 as a single agent"}]}
